Data reported in patent publication US20260041639A1, “GEPOTIDACIN FORMULATION” (GLAXOSMITHKLINE INTELLECTUAL PROPERTY DEVELOPMENT LIMITED, priority 2022, published 2026).
In brackets after ≈: the same amount, converted by molar mass.

Experiment: Solubility of API in water
Assay type: physicochemical
Conditions: 25 °C
Excerpt: The skilled reader will readily appreciate that the granules of the disclosure rapidly disperse. It is therefore apparent that the physical properties of the API and in particular its solubility will have no impact on the dispersion time.

SMILES | solubility
O=c1ccc2ncc(=O)n3c2n1C[C@H]3CN1CCC(NCc2cc3c(cn2)OCCC3)CC1 [gepotidacin, (2R)-2-({4-[(3,4-Dihydro-2H-pyrano[2,3-c]pyridin-6-ylmethyl)amino]-1-piperidinyl}methyl)-1,2-dihydro-3H,8H-2a,5,8a-triazaacenaphthylene-3,8-dione] | 175 mg/mL (≈ 390 mM)
C[C@H]1CO[C@@H]2Cn3cc(C(=O)NCc4ccc(F)cc4F)c(=O)c(O)c3C(=O)N12 [cabotegravir, (3R,6S)—N-[(2,4-difluorophenyl)methyl]-10-hydroxy-6-methyl-8,11-dioxo-4-oxa-1,7-diazatricyclo[7.4.0.03,7]trideca-9,12-diene-12-carboxamide] | 2.9 mg/mL (≈ 7.15 mM)
